{
  "source": "patent US7279172B2",
  "about": "“Treatment of autoimmune conditions with copolymer 1 and related copolymers” (priority 1998, dated 2007)",
  "key": {"HLA-DR1 [1]": {"molecular_target": "T1, HLA-DR1 (Homo sapiens, UniProt P01903+P01911, A100R/D57E/F55L/F60I/F76Y/I96L/L162R/M171V/P40L/Q125E/R42F/V115G/Y59C)", "assay": "Competitive inhibition of biotinylated Copolymer 1 binding to HLA-DR1"}, "[2]": {"test_system": "experimental allergic encephalomyelitis (EAE)", "assay": "EAE suppression by oral administration", "settings": "Lewis rats fed 5 mg/kg; mean maximal score for the entire group, 0-5 scale"}, "HLA-DR4 [3]": {"molecular_target": "T2, HLA-DR4 (Homo sapiens, UniProt P01903+P01911, A100K/A169T/F76Y/I96L/K127E/L162R/M171V/N62H/P40V/Q125Y/R42H/S133A/S149N/S66Y/V115G/V209L/W38E)", "assay": "Binding of biotinylated polypeptides to purified HLA-DR4"}, "[4]": {"test_system": "human EBV transformed B-cell line", "assay": "Binding of biotinylated polypeptides to living antigen presenting cells (FACS), human", "settings": "50 μg biotinylated polypeptide, 37° C. for 20 hr; DR7,w11 haplotype"}, "mice": {"test_system": "mice", "assay": "Toxicity test in mice (i.v. injection, 48 hour observation)", "type": "in vivo", "experimental": "Three batches of copolymer-1 having an average molecular weight of 7.3 and 8.4 KDa (less than 2.5% copolymer-1 species over 40KDa) and 22KDa (more than 5% copolymer-1 species over 40KDa) were subjected to the toxicity test described below. Five mice were used in each experimental group.\nCopolymer-1 is dissolved in distilled water to yield a solution of 2 mg/ml of the active ingredient. Each mouse is injected with 0.5 ml of the test solution into the lateral tail vein. […] Observations were recorded 10 minutes, 24 hours and 48 hours post-injection. If, at the end of 48 hours, all the animals were alive and no adverse signs had been observed, then the batch is designated “non-toxic”. If, however, one or more of the mice had died or had shown adverse signs, then the batch is designated “toxic”."}, "mouse spleen macrophages": {"test_system": "mouse spleen macrophages", "assay": "Binding of biotinylated polypeptides to living antigen presenting cells (FACS), mouse", "settings": "50 μg biotinylated polypeptide, 37° C. for 20 hr"}, "WCB AB line": {"test_system": "WCB AB line", "assay": "IL-2 secretion from WCB AB line", "settings": "for % Inhibition of IL-2 secretion: 2μM p259"}, "[5]": {"test_system": "Rat Basophilic Leukemia cells (RBL-2Ho)", "assay": "In vitro Rat Basophilic Leukemia cell degranulation test ([3H]-serotonin release)", "type": "cell-based", "settings": "100 μg", "description": "Histamine (or serotonin) release from basophile is an in vitro model for immediate hypersensitivity. The Rat Basophilic Leukemia cell line, RBL-2Ho, is uniform and easy to maintain in culture but is a highly sensitive and reproducible system for testing for degranulation. E. L. Basumian, et al., 11 EUR. J. IMMUNOL. 317 (1981). The physiological stimulus for histamine release involves binding of the antigen to membrane-bound IgE molecules, which triggers an intricate biochemical cascade. Degranulation is induced by non-IgE-mediated stimuli, including various peptides and synthetic polymers, e.g. polylysine. R. P. Siraganian, TRENDS IN PHARM[…] 432 (October 1983). The RBL degranulation test is, therefore, used to screen out those batches of COP-1 which evoke substantial degranulation and thus might elicit undesirable local and/or systemic side effects.\nRat Basophilic Leukemia cells (RBL-2Ho), are loaded with [H^3]-serotonin, followed by incubation with 100 μg of the COP-1 to be tested. Batches of COP-1 which induce non-specific degranulation, release [H^3]-serotonin into the medium. The radioactivity in the medium is counted by a scintillation counter and the total radiolabeled serotonin incorporated into the cells is determined in the pelleted cells. Percent degranulation is calculated as the percentage of serotonin released out of the total incorporated."}, "HLA-DR4 [6]": {"molecular_target": "T2, HLA-DR4", "assay": "Competitive inhibition of biotinylated Copolymer 1 binding to HLA-DR4"}, "HLA-DR2 [7]": {"molecular_target": "T3, HLA-DR2 (Homo sapiens, UniProt P01903+P01911)", "assay": "Binding of biotinylated polypeptides to purified HLA-DR2"}, "[8]": {"test_system": "T cells specific for the MBP 84-102 antigen", "assay": "Inhibition of MBP-induced T cell proliferation", "type": "cell-based, mouse, human"}, "HLA-DR1 [9]": {"molecular_target": "T1, HLA-DR1", "assay": "Binding of biotinylated polypeptides to purified HLA-DR1"}, "HLA-DR2 [10]": {"molecular_target": "T3, HLA-DR2", "assay": "Competitive inhibition of biotinylated Copolymer 1 binding to HLA-DR2", "settings": "vs 1.5 μM biotinylated Copolymer 1, pH 5.0, 40 hr 37° C."}, "[11]": {"test_system": "experimental allergic encephalomyelitis (EAE)", "assay": "EAE suppression by injection with incomplete adjuvant", "type": "in vivo, (SJL/J×BALB/c)FI mice"}, "[12]": {"settings": "vs 1.5 μM biotinylated Copolymer 1, pH 5.0, 40 hr 37° C."}, "[13]": {"settings": "mice, 10 mg/mouse subcutaneously in ICFA, EAE induced 3 weeks later"}},
  "note": "Entries after “also recorded” stand apart in the source; their conditions may differ.",
  "data": [
    {"substance": "Copolymer 1 [reference compound]", "values": [
      {"measurement": "inhibition of binding of biotinylated Copolymer 1 to HLA-DR1 (in words)", "setting": "HLA-DR1 [1]; unlabeled inhibitor", "result": "efficiently inhibited"},
      {"measurement": "IC50", "setting": "HLA-DR1 [1]; [12]", "result": 8.8, "unit": "µM"},
      {"measurement": "MMS ± SD", "setting": "[2]", "result": "0.78 ± 0.45"},
      {"measurement": "binding to HLA-DR4, comparison / order of binding capacity (in words)", "setting": "HLA-DR4 [3]; detergent-soluble HLA-DR4", "result": "better than that of GAL, TGA or GTL; also recorded: TAL>Copolymer 1>>TGA>GTL>GAL"},
      {"measurement": "Kd", "setting": "HLA-DR4 [3]; read-out: Kd DR4, detergent-soluble HLA-DR4, pH 5.0, 40 hr 37° C., from slope of double reciprocal plot", "result": 0.015, "unit": "µM"},
      {"measurement": "% Binding", "setting": "[4]", "result": 96, "unit": "%"},
      {"measurement": "MFI (Mean Fluorescence Intensity)", "setting": "[4]", "result": 727},
      {"measurement": "batch designation toxic / non-toxic", "setting": "mice; Copolymer 1 batch of 7.3 KDa average molecular weight", "result": "non-toxic"},
      {"measurement": "batch designation toxic / non-toxic", "setting": "mice; Copolymer 1 batch of 8.4 KDa average molecular weight", "result": "non-toxic"},
      {"measurement": "batch designation toxic / non-toxic", "setting": "mice; Copolymer 1 batch of 22 kDa average molecular weight", "result": "toxic"},
      {"measurement": "mice died after 48 hours", "setting": "mice; Copolymer 1 batch of 22 kDa average molecular weight, 0.5 ml of 2 mg/ml into lateral tail vein, five mice", "result": "Three of five"},
      {"measurement": "% Binding", "setting": "mouse spleen macrophages", "result": 85, "unit": "%"},
      {"measurement": "MFI (Mean Fluorescence Intensity)", "setting": "mouse spleen macrophages", "result": 493},
      {"measurement": "% Inhibition of IL-2 secretion", "setting": "WCB AB line; Cop1 20 μM", "result": 73, "unit": "%"},
      {"measurement": "% Inhibition of IL-2 secretion", "setting": "WCB AB line; Cop1 60 μM", "result": 88, "unit": "%"},
      {"measurement": "% Inhibition of IL-2 secretion", "setting": "WCB AB line; Cop1 100 μM", "result": "about 91%"},
      {"measurement": "% Inhibition of IL-2 secretion", "setting": "WCB AB line; Cop1 100 μM, listed as Cop1", "result": 91, "unit": "%"},
      {"measurement": "inhibition of p259-induced T cell secretion of IL-2 (in words)", "setting": "WCB AB line; Copolymer 1 incubated with the p259 peptide", "result": "inhibited in a dose-related fashion"},
      {"measurement": "% Serotonin Release", "setting": "[5]; Copolymer 1 batch Average M.W. 6,250, <2.5% species over 40 KDa", "result": 12.4, "unit": "%"},
      {"measurement": "% Serotonin Release", "setting": "[5]; Copolymer 1 batch Average M.W. 7,300, <2.5% species over 40 KDa", "result": 21.0, "unit": "%"},
      {"measurement": "% Serotonin Release", "setting": "[5]; Copolymer 1 batch Average M.W. 13,000, >5% species over 40 KDa", "result": 66.9, "unit": "%"},
      {"measurement": "% Serotonin Release", "setting": "[5]; Copolymer 1 batch Average M.W. 14,500, >5% species over 40 KDa", "result": 67.8, "unit": "%"},
      {"measurement": "inhibition of binding of biotinylated Copolymer 1 to HLA-DR4 (in words)", "setting": "HLA-DR4 [6]; unlabeled inhibitor", "result": "efficiently inhibited"},
      {"measurement": "IC50", "setting": "HLA-DR4 [6]; [12]", "result": 10.8, "unit": "µM"},
      {"measurement": "binding to HLA-DR2, comparison / order of binding capacity (in words)", "setting": "HLA-DR2 [7]; detergent-soluble HLA-DR2", "result": "bound better than the other polypeptides; also recorded: Copolymer 1>GTL>TAL>GAL>TGA"},
      {"measurement": "Kd", "setting": "HLA-DR2 [7]; read-out: Kd DR2, detergent-soluble HLA-DR2, pH 5.0, 40 hr 37° C., from slope of double reciprocal plot", "result": 0.082, "unit": "µM"},
      {"measurement": "inhibition of proliferation of T cells exposed to MBP 84-102 antigen (in words)", "setting": "[8]; polypeptide added with stimulating MBP antigen", "result": "significantly inhibited the proliferation"},
      {"measurement": "stimulation of proliferation of T cells specific for the 84-102 peptide of MBP (in words)", "setting": "[8]; polypeptide as antigen", "result": "did not stimulate proliferation"},
      {"measurement": "binding to HLA-DR1, comparison / order of binding capacity (in words)", "setting": "HLA-DR1 [9]; detergent-soluble HLA-DR1", "result": "better than that of GAL, TGA or GTL; also recorded: Copolymer 1>TAL>GTL>TGA>>GAL"},
      {"measurement": "Kd", "setting": "HLA-DR1 [9]; read-out: Kd DR1, detergent-soluble HLA-DR1, pH 5.0, 40 hr 37° C., from slope of double reciprocal plot", "result": 0.074, "unit": "µM"},
      {"measurement": "IC50", "setting": "HLA-DR2 [10]", "result": 10.1, "unit": "µM"},
      {"measurement": "EAE suppression (in words)", "setting": "[11]; injection in ICFA prior to induction of EAE", "result": "greatest EAE suppression"},
      {"measurement": "Incidence", "setting": "[11]; [13]", "result": "2/11"},
      {"measurement": "Suppression % Incidence", "setting": "[11]; [13]", "result": 82.0, "unit": "%"},
      {"measurement": "Suppression % MMS", "setting": "[11]; [13]", "result": 89.0, "unit": "%"},
      {"measurement": "MMS (Mean Maximal Score)", "setting": "[11]; mice, 10 mg/mouse subcutaneously in ICFA, EAE induced 3 weeks later, 0-5 scale", "result": 0.45}
    ]}
  ]
}
